Assay results taken from patent US20110028566A1, “COMPOSITIONS AND PRODUCTS CONTAINING CYCLOALIPHATIC DIOL ANTIMICROBIAL AGENTS AND METHODS OF USING THE COMPOSITIONS AND PRODUCTS” (EASTMAN CHEMICAL COMPANY, priority 2009, published 2011).

Key:
Format in all cases: cell-based
[1] = test system: Corynebacterium xerosis ATCC #373; test: Synergy testing in brain heart infusion media, 96-well plates; conditions: for % EHG / SI: CHDM with EHG; for % EHG: relative to EHG alone; for QB/b (EHG): inhibitory concentration of EHG alone or in combination with CHDM, plate EX194-195-EHG-Syn1; for SI: synergy index
Procedure: MICs were determined using a high-throughput microplate method. Individual antimicrobial agents were added to TSB (pH 7.3) for bacterial testing or SDB (pH 5.6) for fungal testing at the highest concentration to be tested. A serial dilution series was prepared at a dilution ratio of 1:1.3333 such that a one log range was covered in nine dilutions. Two-hundred microliters of the diluted antimicrobial agents were dispensed into four wells each of a sterile, 96-well, flat-bottom microplate (Nalge Nunc International). Four additional wells of the highest concentration were dispensed to serve as uninoculated high-level controls. Eight additional wells containing only broth medium were also prepared, four to serve as negative controls and four as positive controls. Three wells of each antimicrobial agent dilution were inoculated with one of the test strains in Table 7. The final well of each antimicrobial agent dilution was left uninoculated to serve as a control (and means of compensating) for any absorbance/turbidity due to the test compounds.
The individual antimicrobial agents listed in Table 8 were tested in combination with CHDM. The MIC values determined in the individual antimicrobial agent testing described above were used to establish a target MIC. In each experiment, MIC values for the individual antimicrobial agents and CHDM were determined in order to eliminate any variability due to comparison of data from different dates. Testing was done over a range of four concentrations separated by a factor of 1.3333 as described above. The four concentrations were the target MIC plus one dilution level higher and two dilution levels lower than the target. Combinations of antimicrobial agents and CHDM were made at 50% of the target MIC values and the higher and lower individual levels. Additionally, 50% level series were also tested with the antimicrobial agent or CHDM at one dilution level lower than the target level. The method of Kull et. al. (F. C. Kull et al., Applied Microbiology, 9, p 538-541 (1961)) was used to determine whether there was synergistic activity between CHDM and each antimicrobial agent for inhibition of each of the five microbes. MICs for the individually-tested CHDM and antimicrobial agent, as well as the concentration of CHDM and antimicrobial agent in the combination MIC were used to calculate a synergy index (SI) according to the equation: […]
where Qa and Qb are the minimum inhibitory concentrations for CHDM and a antimicrobial agent, respectively, when tested independently, and QA and QB are the concentrations of CHDM and a antimicrobial agent, respectively, in combination at an inhibitory concentration. Accordingly, synergy is defined as a SI less than one.
Experiments were also conducted using Corynebacterium xerosis, which is a bacterium known to cause body odor. […] The Corynebacterium xerosis bacterium used in this example was ATCC #373. The seed culture was grown in brain heart infusion medium. Assays were performed in brain heart infusion media in 96-well plates as described in Example 2. The brain heart infusion medium was at a pH of about 7.4. All growth was conducted at 37° C.

C. albicans = test: MIC comparison of 1,1- and 1,4-CHDM, 96-well plates; conditions: for MIC Day 1: 24 H; for MIC Day 2: 48 H; for MIC Day 3: 72 H
Procedure: (§1) The antimicrobial activities of 1,4-cyclohexanedimethanol (1,4-CHDM) and 1,1-cyclohexanedimethanol (1,1-CHDM) have been determined. […] MICs were individually calculated for three consecutive days with both 1,1-cyclohexanedimethanol and the 31% cis:69% trans mixture of 1,4-cyclohexanedimethanol. Both compounds were evaluated against a panel of five strains of microorganisms.
(§2) Strains P. aeruginosa, C. albicans, E. coli, A. niger and S. aureus were purchased from the American Type Culture Collection (Manassas, Va.). NUNC flat bottom polystyrene 96 well microtiter plates (NUNC Cat# 269787), and 17×100 mm culture tubes (VWR Cat# 60818-703) were purchased from VWR International, LLC (West Chester, Pa.). Eastman CHDM-D90 and 1,1-CHDM (>99.7% by GC and verified by NMR) were provided by Eastman Chemical Company (Kingsport, Tenn.). All bacterial cultures were grown in BD BBL trypticase soy broth, and all fungal cultures were grown in sabourand dextrose broth purchased from VWR International, LLC (West Chester, Pa.). Absorbance measurements were taken with a TECAN GENios Pro microplate reader.
(§3) A small loopful of inoculum was transferred from a freshly streaked agar plate of each strain to 5 ml of sterile media in a 17×100 mm culture tube. The bacteria were incubated for 20-28 hours and C. albicans for 44-52 hours.
(§4) Stock solutions were prepared for each isomer in the corresponding growth media at a concentration of 5% w/v (1,4-CHDM) or 2.25% w/v (1,1-CHDM). Serial dilutions were prepared with a dilution ratio of 1:1.3333 such that one log range was covered with nine dilutions.
(§5) Two-hundred microliters of each CHDM concentration was transferred into 4 wells of a sterile 96-well plate. Four extra wells of the highest concentration were filled for the uninoculated high-level controls. Eight additional wells were filled with only sterile broth to serve as negative and positive controls. The last well of each CHDM isomer dilution was left uninoculated to serve as controls for background turbidity associated with test compounds. Plates with bacteria or C. albicans were inoculated with 2 μl of seed culture for final concentration of roughly 10^6 CFU/ml for the bacteria and 10^5 CFU/ml for the C. albicans. Plates with A. niger were inoculated with 2 μl of spore suspension prepared above.
(§6) Each plate was covered and incubated at the appropriate temperature and turbidity as a measure of cell density was determined via absorbance measurement at 612 nm using a microplate reader. Measurements were taken at 24, 48 and 72 hours for each plate. The raw data was exported into an Excel spreadsheet and the MIC values were determined and expressed as wt %. The absorbance of each inoculated CHDM well was retrieved by first subtracting out the average reading for each uninoculated well, then by comparison to a positive threshold to determine positive or negative status for growth. The positive threshold was calculated by multiplication of the average absorbance for the inoculated media-only wells by 0.05. The MIC was determined as the lowest test concentration resulting in all three replicate wells displaying values below the positive threshold.

E. coli = test: as above; conditions: for MIC Day 1: 24 H; for MIC Day 2: 48 H; for MIC Day 3: 72 H
Procedure: as §1, §2, §3, §4, §5, §6

P. aeruginosa = test: as above; conditions: for MIC Day 1: 24 H; for MIC Day 2: 48 H; for MIC Day 3: 72 H
Procedure: as §1, §2, §3, §4, §5, §6

S. aureus = test: as above; conditions: for MIC Day 1: 24 H; for MIC Day 2: 48 H; for MIC Day 3: 72 H
Procedure: as §1, §2, §3, §4, §5, §6

A. niger = test: as above; conditions: for MIC Day 1: 24 H; for MIC Day 2: 48 H; for MIC Day 3: 72 H
Procedure: as §1, §2
A. niger was cultured on sabourand dextrose agar plates until a heavy concentration of black spores were visibly apparent. Spores were harvested from the plate by suspension in 3 ml of sabourand dextrose broth utilizing a sterile plastic spreader and sterile transfer pipette.
as §4, §5, §6

CCCCC(CC)COCC(O)CO (stereo not drawn) [EHG, ethylhexyl glycerin, reference compound]
100.0%: % EHG ([1]; Day 2) | % EHG ([1]; Day 3)
0.080: QB/b (EHG) ([1]; Day 3)
1.00: SI ([1]; Day 2) | SI ([1]; Day 3)
0.107: QB/b (EHG) ([1]; Day 2)

OCC1CCC(CO)CC1 (stereo not drawn) [1,4 CHDM]
>5.0 wt %: MIC Day 3 (C. albicans) | MIC Day 1 (A. niger)
2.11 wt %: MIC Day 3 (P. aeruginosa)
1.58 wt %: MIC Day 1 (E. coli) | MIC Day 2 (E. coli) | MIC Day 3 (E. coli) | MIC Day 1 (P. aeruginosa) | MIC Day 2 (P. aeruginosa)
4.99 wt %: MIC Day 2 (C. albicans)
3.75 wt %: MIC Day 1 (C. albicans) | MIC Day 1 (S. aureus) | MIC Day 2 (S. aureus) | MIC Day 3 (S. aureus) | MIC Day 2 (A. niger) | MIC Day 3 (A. niger)

OCC1(CO)CCCCC1 [1,1 CHDM]
>2.25 wt %: MIC Day 1 (A. niger) | MIC Day 2 (A. niger) | MIC Day 3 (A. niger)
2.25 wt %: MIC Day 1 (C. albicans) | MIC Day 2 (C. albicans) | MIC Day 3 (C. albicans) | MIC Day 1 (S. aureus) | MIC Day 2 (S. aureus) | MIC Day 3 (S. aureus)
1.26 wt %: MIC Day 1 (E. coli) | MIC Day 2 (E. coli) | MIC Day 3 (E. coli) | MIC Day 1 (P. aeruginosa) | MIC Day 2 (P. aeruginosa) | MIC Day 3 (P. aeruginosa)
